Assay results reported in PMC9320886, “Daily Intraperitoneal Administration of Rosiglitazone Does Not Improve Lung Function or Alveolarization in Preterm Rabbits Exposed to Hyperoxia” (Pharmaceutics, 2022).

Assays:
[1] = test system: neonatal rats exposed to hyperoxia; design: method as in PMID 19304912; conditions: hyperoxia (95% O2), 1 or 3 mg/kg for 7 days; cited from earlier work
[2] = pharmacokinetic profiling in preterm rabbits; type: in vivo; conditions: rabbit
Protocol: A total of 30 preterm rabbits with a GA of 28 days were featured in the pharmacokinetic study. […] Surviving pups were randomized to either receive an intratracheal (IT, local delivery, n = 15) or intraperitoneal (IP, systemic delivery, n = 15) dose of 1 mg/kg of RGZ. For IP injections, RGZ (10 mg/mL in DMSO) was dissolved in H2O + 10% Tween-80 at 0.4 mg/mL and then injected in the right flank based on the pups’ body weight. For IT injections, RGZ (50 mg/mL in DMSO; Merck KGaA) was dissolved in 80 mg/mL of Poractant alfa (Curosurf, Chiesi Farmaceutici, Parma, Italy) at 0.4 mg/mL; the injection volume was based on the pups’ body weight (2.5 mL/kg), as previously described.
Before sample collection, all pups were euthanized with a pentothal sodium overdose. All samples were stored at −20 °C until analysis.
Bioanalysis and quantification were performed using a fit-for-purpose LC/MS/MS method developed internally (LC and MS conditions already described in Section 2.2). Plasma and lung homogenate samples (lungs were homogenized with a water/acetonitrile 50/50 mixture) were extracted by means of protein precipitation with 3 volumes of acetonitrile (Sigma-Aldrich Co, St. Louise, MO, USA), and the supernatant was directly injected into the LC/MS/MS system.
The plasma and lung concentrations of RGZ were determined using a calibration curve prepared in the corresponding blank rabbit matrix (range of calibration: 2–500 ng/mL for plasma; 12–6000 ng/g for lungs) and the accuracy of the quantitation was verified using quality controls prepared in the same matrix and back-calculated on the curve.
Pharmacokinetic parameters were calculated by non-compartmental analysis using Phoenix WinNonlin (Certara L.P., Princeton, NJ, USA). The following PK parameters were calculated: Tmax, time of the maximum concentration; Cmax, maximum concentration; t1/2, half-life (calculable only in case of well-defined elimination phase); AUClast, area under the curve up to the last time point.

[3] = lung tissue binding by equilibrium dialysis; type: in vitro ADME; conditions: preterm rabbit lung homogenate, 4 h, 37 °C
Protocol: In vitro lung tissue binding was also determined by equilibrium dialysis as described above. Preterm rabbit lungs (New Zealand White, BIOIVT) were homogenized using a Precellys tissue homogenizer (Bertin instruments, Montigny-le-Bretonneux, France). Precellys lysing vials (CK28-R, Bertin instruments) were filled with lung and buffer according to the following proportion: 1 g of tissue and 5 mL of ice-cold PBS (dilution 1:6). At the end of the homogenization process, a pool of lung homogenate was prepared mixing equal amount of homogenate from three different donors. Test compounds and the positive control were diluted in the pooled lung homogenate to a final concentration of […] and then dispensed into the red chamber of the RED device inserts. PBS was dispensed into the other side. Upon completion of 4 h of incubation (37 °C under shaking), equal aliquots were removed from each chamber and matrix matched with even volumes of lung homogenate or buffer for LC-MS/MS analyses.
Free and Bound percentages of the compounds were calculated as follows:(3) %Free=Area buffer sample/Area lung homogenate sample×100 (4) % Bound=100−%Free

[4] = design: method as in PMID 19484746; conditions: PND 13 mice, chow of nursing mice with 2.5–10 mg/kg of RGZ; cited from earlier work
[5] = plasma protein binding by equilibrium dialysis; type: in vitro ADME; design: fraction unbound at 4 h: dose or concentration left out as unconfirmed; conditions: both sexes, New Zealand White, preterm rabbit plasma (pooled), 37 °C
Protocol: In vitro plasma protein binding was determined in preterm rabbit plasma (New Zealand White Pooled Gender, BIOIVT, Hicksville, NY, USA) by equilibrium dialysis using Thermo Fisher Scientific Pierce RED rapid equilibrium dialysis devices (Device Inserts 8K MWCO, Thermo Fisher Scientific, Waltham, MA, USA). The assay was performed using a Tecan Evoware robotic system (Männedorf, Switzerland). Test compounds and the positive control were diluted in the pooled plasma (three donors) to a final concentration of […] and then dispensed into the red chamber of the RED device inserts. Phosphate-Buffered Saline (PBS, from Merck KGaA, Darmstadt, Germany) was dispensed into the other side. Upon completion of 4 h of incubation (37 °C under shaking), equal aliquots were removed from each chamber and matrix matched with even volumes of plasma or buffer for LC-MS/MS analyses.
Free and Bound percentages of the compounds were calculated as follows:(1) %Free=Area buffer sample/Area plasma sample×100 (2) % Bound=100−%Free

[6] = test system: preterm rabbits exposed to hyperoxia; experiment: quantification of blood lipid levels; type: in vivo, rabbit
Protocol: Whole blood samples from pups in the RGZ (1 and 10 mg/kg groups) and control groups (n = 6 per group) were obtained though cardiac puncture. Briefly, a 22G needle was inserted into the left ventricle and approximately 1.5 mL of whole blood were collected in K2-EDTA tubes and stored on ice. Within 60 min after blood draw, samples were centrifuged at 1500× g for 15 min and the […] was immediately stored at −80 °C. At the day of quantification, samples were gently thawed overnight at 4 °C and the level of triglycerides (TG), total cholesterol, high-density cholesterol (HDL), and non-HDL were determined using a Cobas 8000 modular analyzer (Roche).

[7] = inhaled or intranasal, plasma, intratracheal 1 mg/kg
[8] = ip, plasma, intraperitoneal 1 mg/kg
[9] = daily 1 mg/kg, PND 7, vs vehicle, p < 0.01

For `CN(CCOc1ccc(CC2SC(=O)NC2=O)cc1)c1ccccn1` (stereo not shown) [RGZ, rosiglitazone], the “RAC and alveolar septal thickness” value [1] is given as “significantly improved”, the half-life ([2]; inhaled or intranasal, lung, intratracheal 1 mg/kg) is given as 900 min and the AUC(0-t) [2, 7] is given as 25800 ng·h/mL. The Cmax [2, 7] was 1950 ng/mL, the Tmax [2, 7] was 15 min and the Cmax ([2]; ip, lung, intraperitoneal 1 mg/kg) was 1020 ng/g. For the same compound, the Cmax [2, 8] was 2440 ng/mL, the Tmax [2, 8] was 15 min and the Kp ([2]; lung and plasma, ip, intraperitoneal 1 mg/kg, read-out: AUCLung/AUCPlasma) was 0.7. For the same compound, the “Lung Tissue Binding (%)” value [3] was 94.2 ± 0.7%, the “RGZ in the lung tissue” value [4] was 90.7 pg/g and the fraction unbound at 4 h [5] was 0.025. The “serum non-HDL” value [6, 9] was “significantly increased”, the serum total cholesterol [6, 9] was “significantly increased” and the serum triglycerides ([6]; daily 1 mg/kg, PND 7, vs vehicle, p < 0.05) was “significantly increased”. The serum lipids ([6]; daily 10 mg/kg, PND 7, p < 0.0001 for all lipids) was “aberrant modulation”.
